Measured values from PubChem BioAssay (NCI).
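The compound was tested at five concentrations on cells cultured in 96-well plates, with a 48-hour exposure period. The concentration for full growth arrest is given as TGI.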

Columns and labels:
Experiment in all cases: NCI tumour cell line growth inhibition, 48 h
HCC-2998 colon = test system: HCC-2998 colon
CCRF-CEM leukemia = test system: CCRF-CEM leukemia
HT29 colon = test system: HT29 colon
RPMI-8226 leukemia = test system: RPMI-8226 leukemia
OVCAR-3 ovarian = test system: OVCAR-3 ovarian
SF-539 CNS = test system: SF-539 CNS
MDA-MB-231 breast = test system: MDA-MB-231 breast
MDA-N = test system: MDA-N
M14 melanoma = test system: M14 melanoma
KM12 colon = test system: KM12 colon
SK-MEL-28 melanoma = test system: SK-MEL-28 melanoma
DU-145 prostate = test system: DU-145 prostate
RXF 393 renal = test system: RXF 393 renal
A498 renal = test system: A498 renal
EKVX NSCLC = test system: EKVX NSCLC
HOP-62 NSCLC = test system: HOP-62 NSCLC
SW-620 colon = test system: SW-620 colon
OVCAR-5 ovarian = test system: OVCAR-5 ovarian
SF-295 CNS = test system: SF-295 CNS
T-47D breast = test system: T-47D breast
NCI-H460 lung = test system: NCI-H460 lung
UACC-62 melanoma = test system: UACC-62 melanoma
ACHN renal = test system: ACHN renal
PC-3 prostate = test system: PC-3 prostate
SNB-75 CNS = test system: SNB-75 CNS
SK-OV-3 ovarian = test system: SK-OV-3 ovarian
SF-268 CNS = test system: SF-268 CNS
CAKI-1 renal = test system: CAKI-1 renal
NCI-H226 lung = test system: NCI-H226 lung
SK-MEL-2 melanoma = test system: SK-MEL-2 melanoma
MCF7 breast = test system: MCF7 breast
IGROV1 ovarian = test system: IGROV1 ovarian
HOP-92 NSCLC = test system: HOP-92 NSCLC
NCI/ADR-RES ovarian = test system: NCI/ADR-RES ovarian
A549 NSCLC = test system: A549 NSCLC
COLO 205 colon = test system: COLO 205 colon
UACC-257 melanoma = test system: UACC-257 melanoma
MDA-MB-435 = test system: MDA-MB-435
SNB-19 CNS = test system: SNB-19 CNS
TK-10 renal = test system: TK-10 renal
SK-MEL-5 melanoma = test system: SK-MEL-5 melanoma
MOLT-4 leukemia = test system: MOLT-4 leukemia
NCI-H23 lung = test system: NCI-H23 lung
U251 CNS = test system: U251 CNS
OVCAR-4 ovarian = test system: OVCAR-4 ovarian
OVCAR-8 ovarian = test system: OVCAR-8 ovarian
HCT-15 colon = test system: HCT-15 colon
K-562 leukemia = test system: K-562 leukemia
UO-31 renal = test system: UO-31 renal
HL-60(TB) leukemia = test system: HL-60(TB) leukemia
LOX IMVI melanoma = test system: LOX IMVI melanoma
HS 578T breast = test system: HS 578T breast
SR leukemia = test system: SR leukemia
SN12C renal = test system: SN12C renal
MALME-3M melanoma = test system: MALME-3M melanoma
HCT-116 colon = test system: HCT-116 colon
786-0 renal = test system: 786-0 renal
NCI-H522 lung = test system: NCI-H522 lung

CCOC(=O)c1csc(NC(=O)CN2CCCC2)n1
TGI (HCC-2998 colon): > 100 µM
TGI (CCRF-CEM leukemia): > 100 µM
TGI (HT29 colon): > 100 µM
TGI (RPMI-8226 leukemia): > 100 µM
TGI (OVCAR-3 ovarian): > 100 µM
TGI (SF-539 CNS): > 100 µM
TGI (MDA-MB-231 breast): > 100 µM
TGI (MDA-N): > 100 µM
TGI (M14 melanoma): > 100 µM
TGI (KM12 colon): > 100 µM
TGI (SK-MEL-28 melanoma): > 100 µM
TGI (DU-145 prostate): > 100 µM
TGI (RXF 393 renal): > 100 µM
TGI (A498 renal): > 100 µM
TGI (EKVX NSCLC): > 100 µM
TGI (HOP-62 NSCLC): > 100 µM
TGI (SW-620 colon): > 100 µM
TGI (OVCAR-5 ovarian): > 100 µM
TGI (SF-295 CNS): > 100 µM
TGI (T-47D breast): > 100 µM
TGI (NCI-H460 lung): > 100 µM
TGI (UACC-62 melanoma): > 100 µM
TGI (ACHN renal): > 100 µM
TGI (PC-3 prostate): > 100 µM
TGI (SNB-75 CNS): > 100 µM
TGI (SK-OV-3 ovarian): > 100 µM
TGI (SF-268 CNS): > 100 µM
TGI (CAKI-1 renal): > 100 µM
TGI (NCI-H226 lung): > 100 µM
TGI (SK-MEL-2 melanoma): > 100 µM
TGI (MCF7 breast): > 100 µM
TGI (IGROV1 ovarian): > 100 µM
TGI (HOP-92 NSCLC): > 100 µM
TGI (NCI/ADR-RES ovarian): > 100 µM
TGI (A549 NSCLC): > 100 µM
TGI (COLO 205 colon): > 100 µM
TGI (UACC-257 melanoma): > 100 µM
TGI (MDA-MB-435): > 100 µM
TGI (SNB-19 CNS): > 100 µM
TGI (TK-10 renal): > 100 µM
TGI (SK-MEL-5 melanoma): > 100 µM
TGI (MOLT-4 leukemia): > 100 µM
TGI (NCI-H23 lung): > 100 µM
TGI (U251 CNS): > 100 µM
TGI (OVCAR-4 ovarian): > 100 µM
TGI (OVCAR-8 ovarian): > 100 µM
TGI (HCT-15 colon): > 100 µM
TGI (K-562 leukemia): > 100 µM
TGI (UO-31 renal): > 100 µM
TGI (HL-60(TB) leukemia): > 100 µM
TGI (LOX IMVI melanoma): > 100 µM
TGI (HS 578T breast): > 100 µM
TGI (SR leukemia): > 100 µM

O=[N+]([O-])c1ccc2nc(Nc3ccccc3)c(Nc3ccccc3)nc2c1
TGI (HCC-2998 colon): 2.65 µM
TGI (CCRF-CEM leukemia): > 100 µM
TGI (HT29 colon): 1.53 µM
TGI (RPMI-8226 leukemia): > 100 µM
TGI (SN12C renal): 2.67 µM
TGI (SF-539 CNS): 2.98 µM
TGI (MALME-3M melanoma): 4.79 µM
TGI (MDA-MB-231 breast): 2.64 µM
TGI (MDA-N): 2.23 µM
TGI (KM12 colon): 2.78 µM
TGI (SK-MEL-28 melanoma): 8.4 µM
TGI (DU-145 prostate): 4.6 µM
TGI (RXF 393 renal): 6.6 µM
TGI (A498 renal): 11.6 µM
TGI (EKVX NSCLC): 6.22 µM
TGI (HOP-62 NSCLC): 2.45 µM
TGI (SW-620 colon): 3.46 µM
TGI (OVCAR-5 ovarian): 6.93 µM
TGI (HCT-116 colon): 1.82 µM
TGI (SF-295 CNS): 2.4 µM
TGI (T-47D breast): 8.63 µM
TGI (NCI-H460 lung): 1.61 µM
TGI (UACC-62 melanoma): 2.23 µM
TGI (ACHN renal): 3.11 µM
TGI (PC-3 prostate): 10.3 µM
TGI (SNB-75 CNS): 5.25 µM
TGI (SK-OV-3 ovarian): 2.88 µM
TGI (SF-268 CNS): 7.91 µM
TGI (CAKI-1 renal): 11.2 µM
TGI (NCI-H226 lung): 5.1 µM
TGI (SK-MEL-2 melanoma): 4.49 µM
TGI (IGROV1 ovarian): 4.98 µM
TGI (HOP-92 NSCLC): 4.88 µM
TGI (NCI/ADR-RES ovarian): 6 µM
TGI (A549 NSCLC): 2.36 µM
TGI (COLO 205 colon): 2.97 µM
TGI (UACC-257 melanoma): 5.1 µM
TGI (MDA-MB-435): 4.4 µM
TGI (786-0 renal): 7.83 µM
TGI (SNB-19 CNS): 7.7 µM
TGI (TK-10 renal): 6.84 µM
TGI (SK-MEL-5 melanoma): 2.82 µM
TGI (MOLT-4 leukemia): > 100 µM
TGI (NCI-H23 lung): 4.26 µM
TGI (U251 CNS): 1.99 µM
TGI (OVCAR-4 ovarian): 11.3 µM
TGI (OVCAR-8 ovarian): 6.45 µM
TGI (HCT-15 colon): 2.18 µM
TGI (K-562 leukemia): > 100 µM
TGI (UO-31 renal): 2.57 µM
TGI (HL-60(TB) leukemia): 40.4 µM
TGI (LOX IMVI melanoma): 3.14 µM
TGI (HS 578T breast): 8.75 µM
TGI (NCI-H522 lung): 1.33 µM
TGI (SR leukemia): > 100 µM
